Source: patent US11021468B2, “TGF-ß inhibitors” (Rigel Pharmaceuticals, Inc., priority 2015, dated 2021)
pIC50: −log10 of the molar value.

Key:
[1] = system: TGF-β; test: AlphaScreen SureFire SMAD3 (p-Ser423/425) assay, TGF-β-stimulated (TGF-β pSMAD (MPC-11)); type: cell-based; settings: p-SMAD-3 (Ser423/425)
From the text: (§1) Example 2: AlphaScreen® SureFire® SMAD3 (p-Ser423/425) Assay
(§2) The p-SMAD-3 (Ser423/425) SureFire® assay has been designed to measure the phosphorylation of endogenous cellular p-SMAD-3 (Ser423/425) in cell lysates and is a system for the screening of both modulators of receptor activation (e.g. agonists and antagonists) as well as agents acting intracellularly, such as small molecule inhibitors of upstream events. The assay will measure p-SMAD-3 (Ser423/425) activation by either cloned or endogenous receptors, and can be applied to primary cells.
(§3) P-SMAD-3 (Ser423/425) SureFire® Assay Protocols
(§4) 96-well Assay Protocol for 293FT and RMS13 adherent cells can be carried out manually or in high throughput with liquid handling robots.
(§5) The cells (80 μL of cells for 96 well plates) were plated in collagen coated tissue culture plates in RPMI or FreeStyle medium (Invitrogen) and incubated overnight. For manual analysis, 6 plates for GDF8, 6 plates for TGFβ, and optionally 6 plates for Alk5ca(ALK5 constitutively active) were used.
(§6) The compound dilution plates were prepared as follows: 12 μL of DMSO was transferred into first column of 96-well plate, and 16 μL of DMSO was transferred into columns 2-12 of the 96-well plate. 12 μL of compound solution was transferred into first column of the DMSO-containing 96-well plate. Three-fold dilution was performed up to column 10 of the DMSO-containing 96-well plate.
(§7) The plate containing cells were treated with compounds for about 10 minutes, and then ligand was added. GDF8 or TGFb was added to plates to stimulate. 293FL cells were stimulated for 90 minutes at 37° C.; and RMS13 cells were stimulated for 60 minutes at 37° C. The medium was then removed from the cells, and 1× Lysis Buffer (about 25 μL) was added and the plate was gently agitated on plate shaker for 5-10 minutes.
(§8) The lysate (5 μL) was then placed into 384-well shallow plates avoiding the generation of bubbles. To this, the Reaction Buffer+Activation Buffer+AlphaScreen® Acceptor beads mixture (5 μL) was added. The plate was sealed with adhesive cover and shielded from light (e.g., with metal foil), and agitated gently on plate shaker for 2 hours at room temperature.
(§9) Dilution buffer+AlphaScreen® Donor beads (2 μL) was then added, and the plate was intubated on the plate shaker for an additional 1½ hours. After completion, the plate was read on Synergy-4 or Enspire plate reader, using AlphaScreen® pSMAD3® settings.
(§10) Representative results for inhibition of GDF8 (data=GDF pSMAD (MPC11) (μM)) and TGF-β (data=TGF-β pSMAD (MPC-11) (μM)) signaling are shown in Table 1: […]

[2] = system: GDF8; test: AlphaScreen SureFire SMAD3 (p-Ser423/425) assay, GDF8-stimulated (GDF pSMAD (MPC11)); type: cell-based; settings: p-SMAD-3 (Ser423/425)
From the text: as §1, §2, §3, §4, §5, §6, §7, §8, §9, §10

[3] = Mus musculus, MPC-11, inhibition of TGF-β signaling
[4] = Mus musculus, MPC-11, inhibition of GDF8 signaling

SMILES	pIC50 [1, 3]	pIC50 [2, 4]	pIC50 ([1]; inhibition of TGF-β signaling)	pIC50 ([2]; inhibition of GDF8 signaling)
Cc1ccc(C)c(-c2nccc(Nc3ccc4c(cnn4C(=O)CN(C)C)c3)n2)c1 [Compound 1, 2-(Dimethylamino)-1-(5-((2-(2,5-dimethylphenyl)pyrimidin-4-yl)amino)-1H-indazol-1-yl)ethan-1-one]	6.25	7.33		
c1ccc(-c2nccc(Nc3ccc4[nH]ncc4c3)n2)cc1 [Compound 20, N-(2-Phenylpyrimidin-4-yl)-1H-indazol-5-amine]	5.76	6.45		
Cc1ccc(C)c(-c2nccc(Nc3ccc4[nH]ncc4c3)n2)c1 [Compound 30, N-(2-(2,5-Dimethylphenyl)pyrimidin-4-yl)-1H-indazol-5-amine]	6.07	6.71		
Cc1cnc(-c2ccc(F)c(F)c2)nc1Nc1ccc2[nH]ncc2c1 [Compound 40, N-(2-(3,4-Difluorophenyl)-5-methylpyrimidin-4-yl)-1H-indazol-5-amine]	6.76	7.23		
Fc1ccc(-c2nccc(Nc3ccc4[nH]ncc4c3)n2)cc1 [Compound 33, N-(2-(4-Fluorophenyl)pyrimidin-4-yl)-1H-indazol-5-amine]	6.69	7.60		
Cc1cccc(-c2nc(Nc3ccc4[nH]ncc4c3)c3cc[nH]c3n2)c1 [Compound 9, N-(1H-Indazol-5-yl)-2-(3-methylphenyl)-7H-pyrrolo[2,3-d]pyrimidin-4-amine]	5.84	6.47		
Cc1ccc(C)c(-c2ncc(C)c(Nc3ccc4[nH]ncc4c3)n2)c1 [Compound 41, N-(2-(2,5-Dimethylphenyl)-5-methylpyrimidin-4-yl)-1H-indazol-5-amine]	6.77	6.98		
Cc1ccccc1-c1ncc(F)c(Nc2ccc3[nH]ncc3c2)n1 [Compound 34, N-(5-Fluoro-2-(methylphenyl)pyrimidin-4-yl)-1H-indazol-5-amine]	5.63	6.37		
Cc1cnc(-c2ccccc2F)nc1Nc1ccc2[nH]ncc2c1 [Compound 38, N-(2-(2-Fluorophenyl)-5-methylpyrimidin-4-yl)-1H-indazol-5-amine]	6.47	6.90		
Fc1ccccc1-c1nccc(Nc2ccc3[nH]ncc3c2)n1 [Compound 17, N-(2-(2-Fluorophenyl)pyrimidin-4-yl)-1H-indazol-5-amine]	5.66	6.66		
Cc1ccccc1-c1nccc(Nc2ccc3[nH]ncc3c2)n1 [Compound 21, N-(2-(2-Methylphenyl)pyrimidin-4-yl)-1H-indazol-5-amine]	5.91	6.70		
Fc1cc2[nH]ncc2cc1Nc1ccnc(-c2ccccc2F)n1 [Compound 23, 6-Fluoro-N-(2-(2-fluorophenyl)pyrimidin-4-yl)-1H-indazol-5-amine]	5.88	6.59		
Cc1cc(-c2nc(Nc3ccc4[nH]ncc4c3)c3cc[nH]c3n2)ccc1F [Compound 8, 2-(4-Fluoro-3-methylphenyl)-N-(1H-indazol-5-yl)-7H-pyrrolo[2,3-d]pyrimidin-4-amine]	6.13	7.07		
Cc1cccc(-c2ncc(C)c(Nc3cnc4[nH]ncc4c3)n2)c1 [Compound 16, N-(2-(3-Methylphenyl)-5-methylpyrimidin-4-yl)-1H-pyrazolo[3,4-b]pyridin-5-amine]	6.39	6.54		
Fc1ccc(-c2nccc(Nc3ccc4[nH]ncc4c3)n2)cc1F [Compound 25, N-(2-(3,4-Difluorophenyl)pyrimidin-4-yl)-1H-indazol-5-amine]			6.49	7.04
Fc1cnc(-c2ccccc2)nc1Nc1ccc2[nH]ncc2c1 [Compound 37, N-(5-Fluoro-2-phenylpyrimidin-4-yl)-1H-indazol-5-amine]	5.49	6.34		
Cc1cnc(-c2ccc(F)c(F)c2)nc1Nc1cnc2[nH]ncc2c1 [Compound 15, N-(2-(3,4-Difluorophenyl)-5-methylpyrimidin-4-yl)-1H-pyrazolo[3,4-b]pyridin-5-amine]	6.06	6.16		
COc1cccc(-c2nccc(Nc3ccc4[nH]ncc4c3)n2)c1 [Compound 19, N-(2-(3-Methoxyphenyl)pyrimidin-4-yl)-1H-indazol-5-amine]	5.39	6.12		
Fc1ccc(-c2nc(Nc3ccc4[nH]ncc4c3)c3cc[nH]c3n2)c(F)c1 [Compound 7, 2-(2,4-Difluorophenyl)-N-(1H-indazol-5-yl)-7H-pyrrolo[2,3-d]pyrimidin-4-amine]	6.06	6.92		

Other lines, results leading:

pIC50 [1, 3]	pIC50 [2, 4]	pIC50 ([1]; inhibition of TGF-β signaling)	pIC50 ([2]; inhibition of GDF8 signaling)	SMILES
6.46	6.26			Cc1cc(-c2ncc(C)c(Nc3cnc4[nH]ncc4c3)n2)ccc1F [Compound 49, N-(2-(4-Fluoro-3-methylphenyl)-5-methylpyrimidin-4-yl)-1H-pyrazolo[3,4-b]pyridin-5-amine]
7.18	7.96			COc1ccc(-c2nccc(Nc3ccc4[nH]ncc4c3)n2)c(C)c1 [Compound 46, N-(2-(4-Methoxy-2-methylphenyl)pyrimidin-4-yl)-1H-indazol-5-amine]
6.23	6.72			Cc1ccc(F)c(-c2nccc(Nc3ccc4[nH]ncc4c3)n2)c1 [Compound 48, N-(2-(2-Fluoro-5-methylphenyl)pyrimidin-4-yl)-1H-indazol-5-amine]
6.49	6.63			Cc1cccc(-c2ncc(C)c(Nc3cc4cn[nH]c4cc3C)n2)c1 [Compound 52, N-(2-(3-Methylphenyl)-5-methylpyrimidin-4-yl)-6-methyl-1H-indazol-5-amine]
6.27	6.62			Cc1cc(-c2ncc(C)c(Nc3cc4cn[nH]c4cc3F)n2)ccc1F [Compound 61, 6-Fluoro-N-(2-(4-fluoro-3-methylphenyl)-5-methylpyrimidin-4-yl)-1H-indazol-5-amine]
6.25	6.48			Cc1ccc(C)c(-c2ncc(C)c(Nc3cc4cn[nH]c4cc3F)n2)c1 [Compound 59, 6-Fluoro-N-(2-(2,5-dimethylphenyl)-5-methylpyrimidin-4-yl)-1H-indazol-5-amine]
7.27	8.12			Cc1cc(F)ccc1-c1nccc(Nc2ccc3[nH]ncc3c2)n1 [Compound 42, N-(2-(4-Fluoro-2-methylphenyl)pyrimidin-4-yl)-1H-indazol-5-amine]
6.73	7.39			Cc1cc(-c2nccc(Nc3ccc4[nH]ncc4c3)n2)ccc1F [Compound 43, N-(2-(4-Fluoro-3-methylphenyl)pyrimidin-4-yl)-1H-indazol-5-amine]
6.26	6.27			Cc1cc2[nH]ncc2cc1Nc1nc(-c2ccc(F)cc2)ncc1C [Compound 53, N-(2-(4-Fluorophenyl)-5-methylpyrimidin-4-yl)-6-methyl-1H-indazol-5-amine]
7.35	7.46			COc1cc2nccc(Nc3ccnc(-c4ccc(F)cc4C)n3)c2cc1OC [Compound 47, N-(2-(4-Fluoro-2-methylphenyl)pyrimidin-4-yl)-6,7-dimethoxyquinolin-4-amine]
5.73	6.68			Nc1ccccc1-c1nccc(Nc2ccc3[nH]ncc3c2)n1 [Compound 44, N-(2-(2-Aminophenyl)pyrimidin-4-yl)-1H-indazol-5-amine]
